Assay results as given in patent US7192939B2, “Pestalotiopsis microsporia isolates and compounds derived therefrom” (Montana State University, priority 2002, dated 2007).
Values after ≈ are worked out from the molar mass of the structure shown.

Experiments:
[1] = test system: Pythium ultimum; assay: Antimycotic activity, minimum inhibitory concentration in potato dextrose broth; assay type: cell-based
Method: (§1) The minimum inhibitory concentration of (1) required to give a 100% reduction of growth of a test fungus over a course of two days was determined by dissolving (1) in 1 ml of potato dextrose broth (PDB). An agar plug, 1 cm in dia, containing the test fungus was then added to the broth and the organisms incubated at 23° C. for 48 hr. At that time the plate containing the fungi was examined visually for growth and the concentration of compound reducing growth by 100% was recorded. Fungi tested were each plant pathogenic and included an oomycete—Pythium ultimum, an ascomycete—Sclerotinia sclerotiorum, and a basidiomycete—Rhizoctonia solani.
Isopestacin (1) is antimycotic, with total inhibition of Pythium ultimum, a plant pathogenic oomycete, at 40 μg/ml at 48 hr.
Pestacin was also analyzed for antifungal activity using previously described methodology. […] This level of activity is slightly greater than that previously observed for isopestacin.

[2] = ESR superoxide scavenging (hypoxanthine/xanthine oxidase, EMPO spin trap); assay type: biochemical; details: superoxide generated by hypoxanthine/xanthine oxidase, read-out: concentration needed to reduce the free radical O2−• (ESR signal) by 50%
Method: All EPR spectra were recorded on a Bruker model ESP 300E spectrometer, X-band operating at a microwave frequency 9.787 gHz, a microwave power of 10 mW, a modulation frequency of 100.0 kHz, and a modulation amplitude of 0.367 mT. The magnetic field range was 334±80 mT, a time constant of 40.96 ms, a receiver gain of 2×10^4 and a magnetic fieldsweep rate of 0.48 mT/s. […] The superoxide O2 ^−• was generated by the action of hypoxanthine or xanthine on water and oxygen through the catalysis of xanthine oxidase. […] All enzymes and their respective substrates were purchased from Sigma Chemical Co., while other reagents were acquired from Calbiochem, and Life-Tech. The reaction mixture was transferred to an EPR flat tube for signal detection. Also placed in the tube was a spin trap compound-2-ethoxycarbonyl-2-methyl-3,4-dihydro-2H-pyrrole-1-oxide (EMPO) to trap the superoxide. […] Test compounds were added to the tube and their effects on signal reduction (antioxidant activity) were monitored. Because of the water insolubility of (1) it was necessary to dissolve it first into a small amount of methanol and then add it to the reaction mixture. […]
The superoxide was generated in our experimental set-up by the action of hypoxanthine on water and oxygen via the catalysis of xanthine oxidase. […] Simultaneously, EPR spectra are recorded of the free electrons associated with the free radicals. […]

[3] = Solubility in water; assay type: physicochemical
[4] = Lipid free radical reduction; assay type: biochemical
Excerpt: Testing confirms that Isopestacin (1) indeed has antioxidant activity as determined by ESR measurements described in the experimental section. The compound is able to scavenge superoxide O2^−• and OH^• radicals in solution. The superoxide was generated in our experimental set-up by the action of hypoxanthine on water and oxygen via the catalysis of xanthine oxidase. On the other hand OH^• was generated via the Fenton reaction of hydrogen peroxide on ferrous iron. Simultaneously, EPR spectra are recorded of the free electrons associated with the free radicals. […] It should be noted that since superoxide was generated via the xanthine oxidase reaction it was no possible to accurately calculate the exact molar concentration of O2^−• in these reactions. However, (1) is extremely capable of scavenging the hydroxyl free radical (OH^•) with 0.22 mM required to reduce this free radical (0.18 mM OH^•—chemically generated) by 50%. This is an important biological and chemical property of (1) since OH^• is believed to be more detrimental to cell death directly than O2^−•. On the other hand, (1) has no effect in reducing the lipid free radical LOO^−•.

[5] = test system: Rhizoctonia solani; assay: Antimycotic activity, minimum inhibitory concentration in potato dextrose broth; assay type: cell-based
Method: as §1

[6] = test system: Sclerotinia sclerotiorum; assay: as above; assay type: cell-based
Method: as §1

[7] = ESR hydroxyl free radical scavenging (Fenton reaction, DEPMPO spin trap); assay type: biochemical; details: 0.18 mM OH• chemically generated (Fenton), read-out: concentration required to reduce hydroxyl free radical by 50%
Method: EPR techniques used in this work are primarily those reported by Sheu et al., 2000 and Zhu and Fung, 2000. All EPR spectra were recorded on a Bruker model ESP 300E spectrometer, X-band operating at a microwave frequency 9.787 gHz, a microwave power of 10 mW, a modulation frequency of 100.0 kHz, and a modulation amplitude of 0.367 mT. The magnetic field range was 334±80 mT, a time constant of 40.96 ms, a receiver gain of 2×10^4 and a magnetic fieldsweep rate of 0.48 mT/s. The magnetic field spacings are similar to those reported by Zhang et al (2000). The superoxide O2 ^−• was generated by the action of hypoxanthine or xanthine on water and oxygen through the catalysis of xanthine oxidase. The hydroxyl free radical OH^• is generated by the well-known Fenton reaction: Fe^2++H2O2=Fe^3++OH^−+OH^•, where 0.09 mM ferrous sulfate and 0.18 mM H2O2 were used. All enzymes and their respective substrates were purchased from Sigma Chemical Co., while other reagents were acquired from Calbiochem, and Life-Tech. […] Test compounds were added to the tube and their effects on signal reduction (antioxidant activity) were monitored. […]
Testing confirms that Isopestacin (1) indeed has antioxidant activity as determined by ESR measurements described in the experimental section. […] Simultaneously, EPR spectra are recorded of the free electrons associated with the free radicals. […]

[8] = Total oxyradical scavenging capacity (TOSC) assay; assay type: biochemical; details: for IC50: TOSC assay, ABAP initiator, KMBA, 37° C., ethylene by GC, read-out: solution concentration required to reduce the effects of the free radical initiator by 50%
Excerpt: The similarity of pestacin to isopestacin, described herein and in Strobel, G. A.; Ford, E.; Worapong, J.; Harper, J. K.; Arif, A. M.; Grant, D. M.; Fung, P.; Chau, R. M. W. Phytochem. […] Pestacin was thus analyzed using the total oxyradical scavenging capacity (TOSC) assay. This analysis assesses a compounds ability to inhibit a free radical initiator's oxidation of α-Keto-γ-methiolbutyric acid to release ethylene gas. Compounds with antioxidant properties thus decrease the production of ethylene gas, as measured gas chromatographically. Pestacin required a 1.7±0.1 mM solution to reduce the effects of the free radical initiator by 50%. In contrast, the water-soluble vitamin E derivative, troxol, required an 18.8±0.9 mM solution to exert the same effect. Pestacin, therefor, appears to be an extremely effective antioxidant as measured by this assay. A mechanism for antioxidant activity may also be proposed based on the structure of pestacin.
Antioxidant activity of (1) was assessed by dissolving 8.7 mg of (1) in 200 μL of DMSO then diluting the solution 1:10, 1:100, and 1:1000 in DMSO. A 10 μL volume of each sample was then combined in a 10 mL vial with 100 μL of 100 mM potassium phosphate buffer, 100 μL of 2 mM α-keto-γ-methiolbuthric acid (KMBA), and 690 μL of H2O. Control samples were also prepared containing 100 μL of 100 mM potassium phosphate buffer, 100 μL of 2 mM KMBA, and 700 μL of H2O. The sealed samples were then incubated at 37° C. for 5 minutes followed by injection of 100 μL of the free radical initiator, 2,2′-azobis(2-methylpropionamidine) (ABAP). Peroxy radicals, generated by thermal homolysis of ABAP at 37° C., then oxidized KMBA to produce ethylene gas. Ethylene production was monitored by gas chromatography of 1 mL samples removed every 12 minutes over a 96-minute period. Chromatographic analysis was performed on a Hewlett-Packard 5890A gas chromatograph equipped with a Supelco 6-foot Porpak Q packed column, a flame ionization detector, and employing helium as a carrier gas (30 mL/min). […]

| IC50 [2] [µM] | solubility in water [3] | IC50 [7] [µM] | MIC ([1]; Globisporangium ultimum, previously described methodology, read-out: minimum inhibitory concentration against Pythium ultimum) [µg/mL] | IC50 [8] [µM] | SMILES | concentration giving total inhibition of Pythium ultimum ([1]; at 48 hr, 100% reduction of growth) [µg/mL] | effect in reducing the lipid free radical LOO−• [4] | inhibitory effect on Rhizoctonia solani [5] | inhibitory effect on Sclerotinia sclerotiorum [6] | antioxidant activity relative to troxol ([8]; pestacin vs vitamin E derivative troxol) [times] |
| --- | --- | --- | --- | --- | --- | --- | --- | --- | --- | --- |
| ≥ 185 | very low solubility in water | 220 | – | – | Cc1cc(O)c2c(c1)C(c1c(O)cccc1O)OC2=O (racemic) [Isopestacin, 1-oxo-3-(9,13-dihydroxybenzene)-5-methyl-7-hydroxy-1,3-dihydrobenzofuranone] | 40 | no effect | no inhibitory effect | no inhibitory effect | – |
| – | – | – | ~10 (≈ 38.7 µM) | 1700 ± 100 | Cc1cc(O)c2c(c1)COC2c1c(O)cccc1O (racemic) [Pestacin] | – | – | – | – | 11 |
| – | – | – | – | 18800 ± 900 | Cc1c(C)c2c(c(C)c1O)CCC(C)(C(=O)O)O2 (centres unmarked) [troxol, reference compound] | – | – | – | – | – |
